# Test system: CD4+ T cells from C3H/HeN lymph nodes
# Format: cell-based, mouse
# Settings: n = 5, sc 50 μg peptide with CFA, day 11, 50 μg/mL peptide in vitro
sequence,measurement,value
"RNTDGSTDYGILQINSR [HEL, H-2k-restricted HEL45-61 peptide derived from hen egg lysozyme ([…])]","TNF-α, IL-2 and IFN-γ production by CD4+ T cells on in vitro stimulation with the peptide","able to produce TNF-α, IL-2 and IFN-γ"

# — article PMC4779142, “The fully synthetic MAG-Tn3 therapeutic vaccine containing the tetanus toxoid-derived TT830-844 universal epitope provides anti-tumor immunity” (Cancer Immunology, Immunotherapy : CII, 2016)
